According to US11459313B2, “Aziridinyl and amino dimeric naphthoquinone compounds and use for acute myeloid leukemia” (University of Maryland, Baltimore, priority 2016, dated 2022):
Where two headings read alike, the source gives them in different places.

Legend:
MV4-11 cells = test: WST-1 cell proliferation assay, MV4-11; format: cell-based, human; conditions: cell proliferation
Method: (§1) Cell lines were seeded into 96-well plates the afternoon prior to treatment. Approximately 18 hours later, bis and mono-aziridine dimeric naphthoquinone compounds were semi-serially diluted in dimethyl sulfoxide (DMSO) and then growth medium, and added to cells. Plates were incubated for 72 hours prior to addition of WST-1 (Promega®). Plates were read after 4 additional hours of incubation at 37° C. using a Bio-Tek Synergy® HT plate reader (Bio-Tek®). Data were analyzed and graphed using GraphPad Prism® Software (Graph Pad®).
(§2) Primary AML cells from patients and cell lines were seeded into 96-well plates the afternoon prior to treatment. Eighteen hours later, amino-dimeric naphthoquinone Compounds 106, 101, and 114 were semi-serially diluted in dimethyl sulfoxide (DMSO) and then growth medium, and added to the cells. In order to quantitate proliferation of metabolically active cells, plates were incubated for 72 hours for cell lines and 48 hours for primary AML cells prior to addition of water-soluble tetrazolium (WST-1) (Clontech®). Plates were read after four additional hours of incubation at 37° C. using a Bio-Tek Synergy® HT plate reader (Bio-Tele®). Data were analyzed and graphed using GraphPad Prism® Software (GraphPad®). IC50 was defined as the concentration that decreases viable cell numbers by 50%. IC50 values were calculated as mean±standard deviation from at least two independent experiments. If availability of primary blasts was limited, the IC50 was obtained from a single experiment.

MOLM-14 cells = test: WST-1 cell proliferation assay, MOLM-14; format: cell-based, human
Method: as §1, §2
To investigate antiproliferative activity of amino-dimeric naphthoquinones against AML cells, an MTT-like cell proliferation assay was performed in the AML cell lines using WST-1 (water soluble tetrazolium salts; Promega®). MOLM-14 and AML-D cells, as well as normal hematopoietic bone marrow cells from a healthy donor, were exposed to a range of concentrations of Compound 101. Human leukemia cells were cultured in the presence of the compound for 72 hours (48 hours for primary cells) and WST-1 reagent was then added. The cells then were monitored for cell growth or the number of cells proliferating and the IC50 calculated. The IC50 is the concentration at which 50% of the cells are not proliferating compared to control cells treated with vehicle. See FIG. 2A, FIG. 2B, and FIG. 2C for representative graphs of these IC50 determinations.

THP-1 cells = test: WST-1 cell proliferation assay, THP-1; format: cell-based; conditions: Homo sapiens
Method: as §1, §2

[1] = Homo sapiens, MV4-11, Table 3, read-out: MV411 IC50
[2] = Homo sapiens, MOLM-14, Table 3, cell proliferation, read-out: MOLM14 IC50
[3] = Homo sapiens, MV4-11, Table 7, read-out: IC50 (μM) MV411
[4] = Homo sapiens, MOLM-14, Table 7, cell proliferation, read-out: IC50 (μM) MOLM-14
[5] = Homo sapiens, MV4-11, Table 9, read-out: IC50 (μM) MV411
[6] = Homo sapiens, MOLM-14, Table 9, cell proliferation, read-out: IC50 (μM) MOLM-14
[7] = Homo sapiens, MV4-11, Table 2, read-out: MV411 IC50
[8] = Homo sapiens, MOLM-14, Table 2, cell proliferation, read-out: MOLM14 IC50

Molecule | IC50 (MV4-11 cells; [1]) | IC50 (MOLM-14 cells; [2]) | IC50 (MV4-11 cells; [3]) | IC50 (MOLM-14 cells; [4]) | also measured
O=C1C(C2=C(N3CCN(CCOCCO)CC3)C(=O)c3ccccc3C2=O)=C(N2CCN(CCOCCO)CC2)C(=O)c2ccccc21 [Compound 110, 3,3′-bis(4-(2-(2-hydroxyethoxy)ethyl)piperazin-1-yl)-[2,2′-binaphthalene]-1,1′,4,4′-tetrone] | 140 ± 0.91 µM | 1.9 ± 0.32 µM |  |  | 
O=C1C(Cl)=C(C2=C(N3CC3)C(=O)c3ccccc3C2=O)C(=O)c2ccccc21 [Compound 106, 3-(aziridin-1-yl)-3′-chloro-[2,2′-binaphthalene]-1,1′ 4,4′-tetrone] |  |  |  |  | IC50 (THP-1 cells; THP-1, read-out: IC50 THP1 (n)): 7.7 ± 1.3 µM; IC50 (THP-1 cells; THP-1, read-out: IC50 THP-1): 7.7 ± 1.3 µM; IC50 (MOLM-14 cells; Homo sapiens, MOLM-14, read-out: IC50 MOLM-14): 3.9 ± 1 µM; IC50 (MOLM-14 cells; Homo sapiens, MOLM-14, read-out: IC50 MOLM-14 (n)): 3.9 ± 1 µM
O=C1C(Cl)=C(C2=C(Cl)C(=O)c3cc(Br)ccc3C2=O)C(=O)c2ccccc21 [Compound 139] |  |  | 5 µM | 7.1 µM | 
O=C1C(C2=C(N3CCN(CCO)CC3)C(=O)c3ccccc3C2=O)=C(N2CCN(CCO)CC2)C(=O)c2ccccc21 [Compound 116] |  |  |  |  | IC50 (MV4-11 cells; [5]): 1.65 µM; IC50 (MOLM-14 cells; [6]): 1.17 µM
CN(C)C1=C(C2=C(N(C)C)C(=O)c3ccccc3C2=O)C(=O)c2ccccc2C1=O [Compound 120, 3,3′-bis-(2-dimethylamino)-2,2′-biuaphthalenyl-1,1′,4,4′-tetrone] |  |  | 2.4 µM | 2.9 µM | IC50 (MV4-11 cells; [7]): 2.15 ± 0.64 µM; IC50 (MOLM-14 cells; [8]): 2.8 ± 0.91 µM
O=C1C(NCCO)=C(C2=C(NCCO)C(=O)c3cc(F)ccc3C2=O)C(=O)c2ccccc21 [Compound 137] |  |  |  |  | IC50 (MV4-11 cells; [5]): 1.16 ± 0.2 µM; IC50 (MOLM-14 cells; [6]): 0.37 ± 0.17 µM
O=C1C(Cl)=C(C2=C(NCCO)C(=O)c3ccccc3C2=O)C(=O)c2ccccc21 [Compound 125, 3-chloro-3′-[(2-hydroxyethyl)amino]-2,2′-binaphthalenyl-1,1′,4,4′-tetrone] |  |  | 1.2 µM | 2.2 µM | IC50 (MV4-11 cells; Homo sapiens, MV4-11, Table 1, read-out: MV411 IC50): 1.2 µM; IC50 (MOLM-14 cells; Homo sapiens, MOLM-14, Table 1, cell proliferation, read-out: MOLM14 IC50): 2.2 µM
O=C1C(NCCO)=C(C2=C(NCCO)C(=O)c3cc(F)ccc3C2=O)C(=O)c2ccccc21 [Compound 105, 3,3′-bis(2-hydroxyethylamino)-6-fluoro-2,2′-binaphthyl-1,1′,4,4′-tetrone] | 2.05 ± 0.4 µM | 1.3 ± 0.23 µM |  |  | 
COc1ccc2c(c1)C(=O)C(NCCO)=C(C1=C(NCCO)C(=O)c3ccccc3C1=O)C2=O [Compound 104, 3,3′-bis(2-hydroxyethylamino)-6-methoxy-2,2′-binaphthalenyl-1,1′,4,4′-tetrone] | 1.16 ± 0.2 µM | 0.37 ± 0.17 µM |  |  | IC50 (MV4-11 cells; [5]): 2.05 ± 0.4 µM; IC50 (MOLM-14 cells; [6]): 1.32 ± 0.23 µM
CN(CCO)C1=C(C2=C(N(C)CCO)C(=O)c3ccccc3C2=O)C(=O)c2ccccc2C1=O [Compound 107, 3,3′-bis-[(2-hydroxyethyl)(N-methyl)amino]-2,2′-binaphthalenyl-1,1′,4,4′-tetrone] | 5.25 ± 0.35 µM | 5.85 ± 0.64 µM | 5 µM | 6.3 µM | 
COCCN(C)C1=C(C2=C(N(C)CCOC)C(=O)c3ccccc3C2=O)C(=O)c2ccccc2C1=O [Compound 108, 3,3′-bis-[(2-methoxyethyl)(N-methyl)amino]-2,2′-binaphthalenyl-1,1′,4,4′-tetrone] | 5.5 ± 0.71 µM | 5.55 ± 0.78 µM | 6 µM | 6.1 µM | 
3-chloro-3′-(4-hydroxypiperidinyl)-2,2′-binaphthalenyl-1,1′,4,4′-tetrone [Compound 127] |  |  |  |  | IC50 (MV4-11 cells; Table 1, read-out: MV411 IC50): 2.1 ± 0.56 µM; IC50 (MOLM-14 cells; Table 1, cell proliferation, read-out: MOLM14 IC50): 3.6 ± 0.63 µM
CN(C)CCNC1=C(C2=C(NCCN(C)C)C(=O)c3ccccc3C2=O)C(=O)c2ccccc2C1=O [Compound 103, 3,3′-bis({[2-(dimethylamino)ethyl]amino})-[2,2′-binaphthalene]-1,1′,4,4′-tetrone] |  |  |  |  | IC50 (MV4-11 cells; [7]): 0.49 µM; IC50 (MOLM-14 cells; [8]): 0.12 µM
